Results from paper PMC11643962, “Exploring 4,7-Disubstituted Pyrimido[4,5-d]pyrimidines as Antiviral and Anticancer Agents” (Molecules, 2024).
Like-named read-outs stand apart in the source and are kept apart here.

What was measured:
[1] = tested on: HL-60 (acute myeloid leukemia); assay: MTS proliferation assay, HL-60; conditions: Homo sapiens, HL-60, 72 h, read-out: Anti-Proliferative Activity (IC50) HL-60
in vitro [2] = conditions: dog
[3] = tested on: herpes simplex virus-1 (HSV-1 KOS); assay: Antiviral CPE reduction assay, HSV-1 KOS in HEL299 cells; format: cell-based; conditions: Human alphaherpesvirus 1, HEL 299, MTS, mean ± SD, no unit printed on the supplement page (Table 2 of the same screen is in µM)
in vitro [4] = conditions: African green monkey
[5] = tested on: respiratory syncytial virus A (RSV A Long); assay: Antiviral CPE reduction assay, RSV A Long in Hep2 cells; format: cell-based; conditions: human respiratory syncytial virus
[6] = tested on: influenza A/H1N1 (A/Ned/378/05); assay: Antiviral CPE reduction assay, influenza A/H1N1 in MDCK cells; format: cell-based, influenza A virus; conditions: Influenza A virus, read-out: Antiviral Activity (EC50) Influenza H1N1
[7] = tested on: HCT-116 (colorectal carcinoma); assay: MTS proliferation assay, HCT-116; conditions: Homo sapiens, HCT-116, 72 h, read-out: Anti-Proliferative Activity (IC50) HCT-116
[8] = tested on: K-562 (chronic myeloid leukemia); assay: MTS proliferation assay, K-562; conditions: Homo sapiens, K562, 72 h, read-out: Anti-Proliferative Activity (IC50) K-562
[9] = tested on: influenza B (B/Ned/537/05); assay: Antiviral CPE reduction assay, influenza B in MDCK cells; format: cell-based, influenza B virus; conditions: Influenza B virus, MDCK, read-out: Antiviral Activity (EC50) Influenza B
[10] = tested on: Z-138 (non-Hodgkin lymphoma); assay: MTS proliferation assay, Z-138; conditions: Homo sapiens, Z-138, 72 h, read-out: Anti-Proliferative Activity (IC50) Z-138
HCoV-OC43 = assay: Antiviral CPE reduction assay, HCoV-OC43 in HEL299 cells; format: cell-based, human coronavirus OC43; conditions: Betacoronavirus 1, OC43, HEL 299, MTS, mean ± SD of two or three independent experiments
[11] = tested on: Capan-1 (pancreatic adenocarcinoma); assay: MTS proliferation assay, Capan-1; conditions: Homo sapiens, CAPAN-1, 72 h, read-out: Anti-Proliferative Activity (IC50) Capan-1
[12] = tested on: DND-41 (acute lymphoblastic leukemia); assay: MTS proliferation assay, DND-41; conditions: Homo sapiens, DND41, 72 h, read-out: Anti-Proliferative Activity (IC50) DND-41
[13] = tested on: NCI-H460 (lung carcinoma); assay: MTS proliferation assay, NCI-H460; conditions: Homo sapiens, NCI-H460, 72 h, read-out: Anti-Proliferative Activity (IC50) NCI-H460
[14] = tested on: influenza A/H3N2 (A/HK/7/87); assay: Antiviral CPE reduction assay, influenza A/H3N2 in MDCK cells; format: cell-based, influenza A virus; conditions: Influenza A virus, read-out: Antiviral Activity (EC50) Influenza H3N2
[15] = tested on: eight diverse human cancer cell lines; assay: MTS proliferation assay, panel of eight human cancer cell lines (statements for the whole panel); conditions: 72 h, read-out: CC50 values (anti-proliferative activity) against the majority of the tested cell lines
[16] = tested on: yellow fever virus (YFV 17D); assay: microbe, parasite or virus in culture; format: cell-based; conditions: Yellow fever virus, Vero C1008, read-out: Antiviral activity (EC50) YFV 17D
Zika virus (ZikV mr766) = assay: Antiviral CPE reduction assay, Zika virus mr766 in VeroE6 cells; format: cell-based; conditions: Zika virus, Vero C1008, MTS, mean ± SD, no unit printed on the supplement page (Table 2 of the same screen is in µM)
HCoV-229E = assay: Antiviral CPE reduction assay, HCoV-229E in HEL299 cells; format: cell-based, human coronavirus 229E; conditions: Human coronavirus 229E, HEL 299, MTS, mean ± SD of two or three independent experiments
LN-229 (glioblastoma) = assay: MTS proliferation assay, LN-229; conditions: Homo sapiens, LN-229, 72 h, read-out: Anti-Proliferative Activity (IC50) LN-229
HCoV-NL63 = assay: Antiviral CPE reduction assay, HCoV-NL63 in Hep3B cells; format: cell-based, human coronavirus NL63; conditions: Human coronavirus NL63, MTS, mean ± SD of two or three independent experiments
in vitro [17] = conditions: human
in vitro [18] = conditions: human; remark: listed apart in the source
[19] = tested on: variety of viruses (HSV-1, influenza viruses, yellow fever virus, Zika virus, RSV, HCoV-229E, HCoV-OC43, HCoV-NL63); format: cell-based; conditions: CPE reduction assays, virus panel
in vitro [20] = conditions: human; remark: listed apart in the source
[21] = HEp-2, Hep2 cells, CPE reduction, MTS, mean ± SD of two or three independent experiments, read-out: Antiviral Activity (EC50) RSV A Long
[22] = H1N1, MDCK cells, CPE reduction, MTS, mean ± SD of two or three independent experiments
[23] = H3N2, MDCK cells, CPE reduction, MTS, mean ± SD of two or three independent experiments

Structure (SMILES): CC#CC(=O)Nc1ccc2ncnc(Nc3cccc(Br)c3)c2c1 [CL-387785, reference compound]
- IC50 [1]: 1.9 ± 0.04 µM
- CC50 (in vitro [2]): 7.1 ± 0.4 µM
- EC50 [3]: 1 µM
- CC50 (in vitro [4]): > 100 µM
- EC50 ([5]; HEp-2, read-out: Antiviral Activity (EC50) RSV A Long): > 100 µM
- EC50 ([6]; H1N1, MDCK): > 100 µM
- IC50 [7]: 1.3 ± 1.1 µM
- IC50 [8]: 65 ± 0.2 µM
- EC50 [9]: 4.5 ± 1.2 µM
- IC50 [10]: 0.2 ± 0.1 µM
- EC50 (HCoV-OC43): 1.8 ± 0.4 µM
- IC50 [11]: 0.1 ± 0.01 µM
- IC50 [12]: 0.9 ± 0.2 µM
- IC50 [13]: 2.8 ± 0.6 µM
- EC50 ([14]; H3N2, MDCK): > 100 µM
- CC50 [15]: < 10 µM
- EC50 [16]: > 100 µM
- EC50 (Zika virus (ZikV mr766)): > 100 µM
- EC50 (HCoV-229E): 0.4 ± 0.2 µM
- IC50 (LN-229 (glioblastoma)): 43.8 ± 6.7 µM
- EC50 (HCoV-NL63): > 100 µM

Structure (SMILES): CN1CCN(c2ncc3c(Nc4cccnc4)ncnc3n2)CC1 [Compound 7k, 7-(4-methylpiperazin-1-yl)-N-(pyridin-3-yl)pyrimido[4,5-d]pyrimidin-4-amine]
- IC50 [1]: > 100 µM
- CC50 (in vitro [2]): > 50 µM
- EC50 [3]: > 50 µM
- CC50 (in vitro [4]): > 50 µM
- CC50 (in vitro [17]): > 50 µM
- EC50 [5, 21]: > 50 µM
- EC50 [6, 22]: > 50 µM
- IC50 [7]: > 100 µM
- IC50 [8]: > 100 µM
- EC50 [9]: > 50 µM
- melting point: > 300 °C
- CC50 (in vitro [18]): > 50 µM
- IC50 [10]: > 100 µM
- EC50 (HCoV-OC43): > 50 µM
- IC50 [11]: > 100 µM
- IC50 [12]: > 100 µM
- IC50 [13]: > 100 µM
- EC50 [14, 23]: > 50 µM
- EC50 [16]: > 50 µM
- antiviral activity (in words) [19]: inactive
- EC50 (Zika virus (ZikV mr766)): > 50 µM
- CC50 (in vitro [20]): > 50 µM
- EC50 (HCoV-229E): > 50 µM
- IC50 (LN-229 (glioblastoma)): > 100 µM
- EC50 (HCoV-NL63): > 50 µM

Structure (SMILES): C#Cc1cccc(Nc2ncnc3nc(N4CCN(C)CC4)ncc23)c1 [Compound 7h, N-(3-ethynylphenyl)-7-(4-methylpiperazin-1-yl)pyrimido[4,5-d]pyrimidin-4-amine]
- IC50 [1]: 79.1 ± 4.6 µM
- CC50 (in vitro [2]): > 50 µM
- EC50 [3]: > 50 µM
- CC50 (in vitro [4]): > 50 µM
- EC50 [5, 21]: > 50 µM
- EC50 [6, 22]: > 50 µM
- IC50 [7]: > 100 µM
- IC50 [8]: 52.3 ± 4.4 µM
- EC50 [9]: > 50 µM
- melting point: 290 °C
- IC50 [10]: 52.6 ± 1.4 µM
- EC50 (HCoV-OC43): > 50 µM
- IC50 [11]: > 100 µM
- IC50 [12]: 66.5 ± 0.8 µM
- IC50 [13]: > 100 µM
- EC50 [14, 23]: > 50 µM
- EC50 [16]: > 50 µM
- antiviral activity (in words) [19]: inactive
- EC50 (Zika virus (ZikV mr766)): > 50 µM
- EC50 (HCoV-229E): > 50 µM
- IC50 (LN-229 (glioblastoma)): 97.1 ± 1.5 µM
- EC50 (HCoV-NL63): > 50 µM

Structure (SMILES): CN1CCN(c2ncc3c(Nc4cccc5c4CCC5)ncnc3n2)CC1 [Compound 7d, N-(2,3-dihydro-1H-inden-4-yl)-7-(4-methylpiperazin-1-yl)pyrimido[4,5-d]pyrimidin-4-amine]
- IC50 [1]: ≥ 71 µM
- CC50 (in vitro [2]): > 50 µM
- EC50 [3]: > 50 µM
- CC50 (in vitro [4]): > 50 µM
- CC50 (in vitro [17]): > 50 µM
- EC50 [5, 21]: > 50 µM
- EC50 [6, 22]: > 50 µM
- IC50 [7]: > 100 µM
- IC50 [8]: 61.3 ± 2.4 µM
- EC50 [9]: > 50 µM
- melting point: > 250 °C
- CC50 (in vitro [18]): > 50 µM
- IC50 [10]: 56.5 ± 1.2 µM
- EC50 (HCoV-OC43): > 50 µM
- IC50 [11]: > 100 µM
- IC50 [12]: 80.6 ± 10.2 µM
- IC50 [13]: > 100 µM
- EC50 [14, 23]: > 50 µM
- EC50 [16]: > 50 µM
- antiviral activity (in words) [19]: inactive
- EC50 (Zika virus (ZikV mr766)): > 50 µM
- CC50 (in vitro [20]): > 50 µM
- EC50 (HCoV-229E): > 50 µM
- IC50 (LN-229 (glioblastoma)): > 100 µM
- EC50 (HCoV-NL63): > 50 µM
